Test [1] can be described thus: HEK293T viability reduction via ATP content – cell-based, CellTiter-Glo luminescence, dry powder, cytotoxicity control, dose response (AID 743481). The note with it: HEK293T viability, ATP luminescence, 72 h; at 26 µM (top of the series). In general terms: Cellular ATP, detected with luciferase, serves as a proxy for viable cell number.
In test [2] the test system is HEK293T viability, ATP luminescence, 72 h. The description is as above.

A word on the AC50: it is the midpoint of the concentration-response curve, whichever way the signal moves.

The source made the active and inactive calls.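 Rule for the calls: active = compounds lowering cell ATP signal whose fitted AC50 is at most twice their highest tested dose; inconclusive = flat curve with moderate signal loss, or unreliable fit; inactive = the rest.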

For `C[C@H](CO)N1C[C@H](C)[C@H](CN(C)C(=O)Nc2ccccc2)OCCCC[C@H](C)Oc2ccc(NC(=O)C3CCCCC3)cc2C1=O`, the activity change, negative = cytotoxicity in test [1] was -9.15% (inactive).
Same read-out and setting: the figure for `C[C@H]1CCCCO[C@@H](CN(C)C(=O)Nc2ccc(F)cc2)[C@@H](C)CN([C@@H](C)CO)C(=O)c2cc(NC(=O)C3CCCCC3)ccc2O1` is -15.6% (inactive).
The same measure, in the same setting: then `C[C@@H]1CCCCO[C@@H](CN(C)C(=O)Nc2cccc3ccccc23)[C@@H](C)CN([C@@H](C)CO)C(=O)c2cc(NC(=O)C3CCCCC3)ccc2O1`, with -16.3% (inactive); and `C[C@H](CO)N1C[C@H](C)[C@H](CN(C)C(=O)Nc2cccc3ccccc23)OCCCC[C@H](C)Oc2ccc(NC(=O)NC3CCCCC3)cc2C1=O`, with -18.8% (inactive); and `C[C@H](CO)N1C[C@H](C)[C@H](CN(C)C(=O)Nc2ccc(F)cc2)OCCCC[C@H](C)Oc2ccc(NC(=O)NC3CCCCC3)cc2C1=O`, with -9.87% (inactive).
The same measure, in the same setting: the figure for `C[C@H](CO)N1C[C@H](C)[C@H](CN(C)C(=O)Nc2cccc(F)c2)OCCCC[C@H](C)Oc2ccc(NC(=O)C3CCCCC3)cc2C1=O` is 9.35% (inactive); for `COc1ccc(NC(=O)N(C)C[C@@H]2OCCCC[C@H](C)Oc3ccc(NC(=O)NC4CCCCC4)cc3C(=O)N([C@H](C)CO)C[C@@H]2C)cc1` it is -10.6% (inactive); for `C[C@H](CO)N1C[C@H](C)[C@H](CN(C)C(=O)Nc2ccc(F)cc2)OCCCC[C@H](C)Oc2ccc(NC(=O)C3CC3)cc2C1=O` it is -1.35% (inactive).
On to `C[C@H](CO)N1C[C@H](C)[C@H](CN(C)C(=O)Nc2ccc3c(c2)OCO3)OCCCC[C@H](C)Oc2ccc(NC(=O)C3CCCCC3)cc2C1=O`, for which the activity change, negative = cytotoxicity in test [1] was 2.78% (inactive).
As to `C[C@H](CO)N1C[C@H](C)[C@H](CN(C)C(=O)Nc2ccc(F)cc2)OCCCC[C@H](C)Oc2ccc(NC(=O)C3CCCCCC3)cc2C1=O`, the activity change, negative = cytotoxicity in test [1] is -6.61% (inactive).
For the molecule `C[C@H](CO)N1C[C@H](C)[C@H](CN(C)C(=O)Nc2ccccc2)OCCCC[C@H](C)Oc2ccc(NC(=O)CCC(F)(F)F)cc2C1=O`, in test [1], the activity change, negative = cytotoxicity was -6.87% (inactive).
The same measure, in the same setting: the figure for `C[C@H]1CCCCO[C@@H](CN(C)C(=O)Nc2ccccc2)[C@@H](C)CN([C@@H](C)CO)C(=O)c2cc(NC(=O)NC3CCCCC3)ccc2O1` is 3.42% (inactive).
The same measure, in the same setting: the figure for `C[C@H](CO)N1C[C@H](C)[C@H](CN(C)C(=O)Nc2ccc(F)cc2)OCCCC[C@H](C)Oc2ccc(NC(=O)C3CCC3)cc2C1=O` is -3.85% (inactive).
Same read-out and setting: then `C[C@H](CO)N1C[C@H](C)[C@H](CN(C)C(=O)Nc2ccc3ccccc3c2)OCCCC[C@H](C)Oc2ccc(NC(=O)C3CCCCC3)cc2C1=O`, with 7.21% (inactive); and `C[C@@H]1CCCCO[C@@H](CN(C)C(=O)Nc2cccc3ccccc23)[C@H](C)CN([C@@H](C)CO)C(=O)c2cc(NC(=O)C3CCCCC3)ccc2O1`, with -12.5% (inactive); and `C[C@H]1CCCCO[C@@H](CN(C)C(=O)Nc2ccc3c(c2)OCO3)[C@@H](C)CN([C@@H](C)CO)C(=O)c2cc(NC(=O)NC3CCCCC3)ccc2O1`, with -7.34% (inactive).
In the case of `C[C@@H]1CCCCO[C@@H](CN(C)C(=O)Nc2cccc3ccccc23)[C@@H](C)CN([C@H](C)CO)C(=O)c2cc(NC(=O)C3CCCCC3)ccc2O1`, the activity change, negative = cytotoxicity in test [1] is -15.4% (inactive).
For `C[C@@H]1CCCCO[C@H](CN(C)C(=O)Nc2cccc3ccccc23)[C@@H](C)CN([C@H](C)CO)C(=O)c2cc(NC(=O)C3CCCCC3)ccc2O1`, the activity change, negative = cytotoxicity in test [1] is -3.68% (inactive).
Turning to `C[C@H](CO)N1C[C@H](C)[C@H](CN(C)C(=O)Nc2ccc(C(F)(F)F)cc2)OCCCC[C@H](C)Oc2ccc(NC(=O)CCC(F)(F)F)cc2C1=O`, the AC50 in test [2] is > 52 µM (inactive).
For the molecule `C[C@@H]1CCCCO[C@H](CN(C)C(=O)Nc2cccc3ccccc23)[C@H](C)CN([C@@H](C)CO)C(=O)c2cc(NC(=O)C3CCCCC3)ccc2O1`, the activity change, negative = cytotoxicity in test [1] was -10.3% (inactive).
Still for that read-out and setting: then `C[C@@H]1CN([C@@H](C)CO)C(=O)c2cc(NC(=O)C3CCCCC3)ccc2O[C@@H](C)CCCCO[C@@H]1CN(C)C(=O)Nc1cccc2ccccc12`, with -17% (inactive); and `C[C@H](CO)N1C[C@H](C)[C@H](CN(C)C(=O)Nc2ccc(F)cc2)OCCCC[C@H](C)Oc2ccc(NC(=O)C3CCOCC3)cc2C1=O`, with -1.32% (inactive).
For `C[C@H](CO)N1C[C@H](C)[C@H](CN(C)C(=O)Nc2ccc(Cl)cc2)OCCCC[C@H](C)Oc2ccc(NC(=O)C3CCCCC3)cc2C1=O`, the activity change, negative = cytotoxicity in test [1] was -12.5% (inactive).
On to `C[C@@H]1CN([C@@H](C)CO)C(=O)c2cc(NC(=O)C3CCCCC3)ccc2O[C@@H](C)CCCCO[C@H]1CN(C)C(=O)Nc1cccc2ccccc12`, for which the AC50 in test [2] is 7.74 µM.
On the same count and under the same terms, the figure for `COc1ccc(S(=O)(=O)N(C)C[C@@H]2OCCCC[C@H](C)Oc3ccc(NS(=O)(=O)c4ccc(Cl)cc4)cc3C(=O)N([C@@H](C)CO)C[C@@H]2C)cc1` is 16.4 µM.
On to `C[C@H](CO)N1C[C@H](C)[C@H](CN(C)C(=O)Nc2cccc3ccccc23)OCCCC[C@H](C)Oc2ccc(NC(=O)CCC(F)(F)F)cc2C1=O`, for which the activity change, negative = cytotoxicity in test [1] is 24.6% (inactive).
As to `C[C@H](CO)N1C[C@H](C)[C@H](CN(C)C(=O)Nc2ccc(F)cc2)OCCCC[C@H](C)Oc2ccc(NC(=O)C3CCCCC3)cc2C1=O`, in test [1], the activity change, negative = cytotoxicity is -7.09% (inactive).
On to `COc1ccc(NC(=O)N(C)C[C@@H]2OCCCC[C@H](C)Oc3ccc(NC(=O)C4CCCCC4)cc3C(=O)N([C@H](C)CO)C[C@@H]2C)cc1`, for which the activity change, negative = cytotoxicity in test [1] is -7.25% (inactive).
On the same count and under the same terms, then `C[C@H](CO)N1C[C@H](C)[C@H](CN(C)C(=O)Nc2ccccc2)OCCCC[C@H](C)Oc2ccc(NC(=O)Nc3ccc4c(c3)OCO4)cc2C1=O`, with -5.94% (inactive).
The same measure, in the same setting: then `C[C@H](CO)N1C[C@H](C)[C@@H](CN(C)C(=O)Nc2cccc3ccccc23)OCCCC[C@H](C)Oc2ccc(NC(=O)C3CCCCC3)cc2C1=O`, with -7.19% (inactive).
The same measure, in the same setting: then `Cc1ccc(NC(=O)N(C)C[C@@H]2OCCCC[C@H](C)Oc3ccc(NC(=O)C4CCCCC4)cc3C(=O)N([C@H](C)CO)C[C@@H]2C)cc1`, with 9.91% (inactive); and `C[C@H](CO)N1C[C@H](C)[C@H](CN(C)C(=O)Nc2ccc(C(F)(F)F)cc2)OCCCC[C@H](C)Oc2ccc(NC(=O)NC3CCCCC3)cc2C1=O`, with 5.48% (inactive).
Take `C[C@@H]1CCCCO[C@H](CN(C)C(=O)Nc2cccc3ccccc23)[C@@H](C)CN([C@@H](C)CO)C(=O)c2cc(NC(=O)C3CCCCC3)ccc2O1`: the activity change, negative = cytotoxicity in test [1] was 6.63% (inactive).
Regarding `C[C@H]1CCCCO[C@@H](CN(C)S(=O)(=O)c2ccc(Cl)cc2)[C@@H](C)CN([C@@H](C)CO)C(=O)c2cc(NC(=O)NC3CCCCC3)ccc2O1`, the AC50 in test [2] is 15.8 µM.
As to `CC(=O)Nc1ccc2c(c1)C(=O)N([C@H](C)CO)C[C@H](C)[C@H](CN(C)C(=O)Nc1ccc(F)cc1)OCCCC[C@H](C)O2`, the activity change, negative = cytotoxicity in test [1] was -16.5% (inactive).
On the same count and under the same terms, then `C[C@H](CO)N1C[C@H](C)[C@H](CN(C)C(=O)Nc2ccccc2F)OCCCC[C@H](C)Oc2ccc(NC(=O)C3CCCCC3)cc2C1=O`, with -11.7% (inactive); and `C[C@H]1CCCCO[C@@H](CN(C)C(=O)Nc2cccc3ccccc23)[C@@H](C)CN([C@@H](C)CO)C(=O)c2cc(NC(=O)C3CCCCC3)ccc2O1`, with -14.3% (inactive).
In the case of `C[C@H](CO)N1C[C@H](C)[C@H](CN(C)C(=O)Nc2cccc3ccccc23)OCCCC[C@H](C)Oc2ccc(NC(=O)C3CCCCC3)cc2C1=O`, in test [1], the activity change, negative = cytotoxicity is -4.95% (inactive).
For the molecule `C[C@@H]1CCCCO[C@H](CN(C)C(=O)Nc2cccc3ccccc23)[C@H](C)CN([C@H](C)CO)C(=O)c2cc(NC(=O)C3CCCCC3)ccc2O1`, the activity change, negative = cytotoxicity in test [1] was 3.66% (inactive).
Still for that read-out and setting: then `C[C@@H]1CCCCO[C@@H](CN(C)C(=O)Nc2cccc3ccccc23)[C@H](C)CN([C@H](C)CO)C(=O)c2cc(NC(=O)C3CCCCC3)ccc2O1`, with -11.7% (inactive).
On the same count and under the same terms, the figure for `C[C@H](CO)N1C[C@H](C)[C@H](CN(C)C(=O)Nc2ccc(F)cc2)OCCCC[C@H](C)Oc2ccc(NC(=O)Nc3ccccc3)cc2C1=O` is -10.5% (inactive).
Still for that read-out and setting: the figure for `C[C@H](CO)N1C[C@H](C)[C@H](CN(C)C(=O)Nc2ccccc2)OCCCC[C@H](C)Oc2ccc(NC(=O)NC3CCCCC3)cc2C1=O` is -8.51% (inactive).
Take `C[C@H](CO)N1C[C@H](C)[C@H](CN(C)C(=O)Nc2ccc(F)cc2)OCCCC[C@H](C)Oc2ccc(NC(=O)C3CCCC3)cc2C1=O`: in test [1], the activity change, negative = cytotoxicity was 9.39% (inactive).
On to `C[C@H](CO)N1C[C@H](C)[C@H](CN(C)C(=O)Nc2cccc3ccccc23)OCCCC[C@H](C)Oc2ccc(NC(=O)c3ccccc3)cc2C1=O`, for which the activity change, negative = cytotoxicity in test [1] is -8.78% (inactive).
Same read-out and setting: then `C[C@H](CO)N1C[C@H](C)[C@H](CN(C)C(=O)Nc2ccccc2)OCCCC[C@H](C)Oc2ccc(NC(=O)Nc3ccccc3)cc2C1=O`, with 0.603% (inactive); and `CC(C)(C)c1ccc(-c2nc(-c3ccncc3)no2)cc1`, with -16.3% (inactive).
As for `C[C@H](CO)N1C[C@H](C)[C@H](CN(C)C(=O)Nc2ccc(F)cc2)OCCCC[C@H](C)Oc2ccc(NC(=O)Nc3ccc(F)cc3)cc2C1=O`, the activity change, negative = cytotoxicity in test [1] was -12.4% (inactive).
Still for that read-out and setting: the figure for `C[C@H](CO)N1C[C@H](C)[C@H](CN(C)C(=O)Nc2ccc3c(c2)OCO3)OCCCC[C@H](C)Oc2ccc(NC(=O)NC3CCCCC3)cc2C1=O` is -11.1% (inactive).

The record behind these values is PubChem BioAssay AID743481 (Broad Institute, 2014).
